Data reported in the NIST ThermoML archive (doi:10.1021/je2000217).

Experiment: cn = amount concentration of the nth substance listed, in mol/dm3
Conditions: 100 kPa, Liquid; for viscosity: Capillary tube (Ostwald / Ubbelohde) method; for mass density: Vibrating tube method

CCCCCCCCCCCCCCCC[N+](C)(C)C.[Br-] [N,N,N-trimethyl-1-hexadecanaminium bromide] + O
Conditions | mass density, 298.15 K [kg/m3] | mass density, 308.15 K [kg/m3] | mass density, 318.15 K [kg/m3] | viscosity, 298.15 K [mPa·s] | viscosity, 308.15 K [mPa·s] | viscosity, 318.15 K [mPa·s]
c1 = 0.001 | 997.1 | 994.2 | 990.6 | 0.8978 | 0.7436 | 0.6173
c1 = 0.003 | 997.3 | 994.3 | 990.7 | 0.9087 | 0.7516 | 0.6217
c1 = 0.005 | 997.4 | 994.4 | 990.8 | 0.9213 | 0.7596 | 0.6349
